Source: publication PMC12523804, “Evaluation of molecular mechanisms of (Z)-3-(pentadec-10′-enyl)-catechol (litreol) and synthetic derivatives as inhibitors of human leukotriene biosynthesis” (Redox Biology, 2025)

Experiments:
[1] = tested on: p38 MAPK; test: Western blot of p38 MAPK phosphorylation; assay type: cell-based, human; conditions: for fMLP-induced activation (phosphorylation) of p38 MAP kinase: PMNL, 1 μM compound, 1 μM fMLP
Procedure: (§1) Human polymorphonuclear leukocytes (PMNLs; 50 × 10^6), isolated from whole blood, were resuspended in 1 mL of cold PGC buffer. Briefly, neutrophils were pre-incubated for 15 min at 37 °C with test compounds (1 μM). […] The samples were subsequent centrifuged (1200g, 10 min) and the pellets were resuspended in 100 μL od SDS-PAGE loading buffer (2x) (Tris 1 M pH 8, EDTA 0.2 M, 10 % SDS, 10 % mercaptoethanol). Correct protein loading on the gels and transfer of proteins to the nitrocellulose membrane were confirmed by Ponceau staining. Membranes with transferred proteins were incubated overnight with primary antibodies in 1x Tris Buffered Saline (TBS) with 1 % Casein (Biorad- #1610782). Membranes were then washed and incubated with horseradish peroxidase-conjugated secondary antibodies for 1 h at room temperature. Blots were developed using enhanced chemiluminescence detection reagents ECL (Immobilion ECL Ultra Western HRP Substrate - Cat# WBULS0500 Millipore) and acquired using ChemiDoc Imaging System (BioRad). Antibody recognizing phosphorylated p38-MAPkinase, pERK, ERK, NfKB were from Cell Signalling Technology (Boston, MA) and used at 1:1000 dilution. Secondary antibodies were purchased from Biorad (170–6515; 170–6516) and used at 1:2000 diluition.

[2] = tested on: ERK; test: Western blot of ERK phosphorylation; assay type: cell-based, human; conditions: for fMLP-induced activation (phosphorylation) of ERK: PMNL, 1 μM compound, 1 μM fMLP
Procedure: as §1

[3] = biological target: T1, 5-LO (Homo sapiens, UniProt P09917); test: cell-free 5-LO activity assay with purified human recombinant 5-LO; assay type: biochemical; design: made in house; conditions: for mechanism of 5-LO inhibition versus substrate AA: AA 2.5, 5, 10, 20, 40 and 80 μM; for mechanism of 5-LO inhibition versus substrate AA / AA concentration at which maximal inhibitory potency was reached: isolated 5-LO; for AA concentration at which maximal inhibitory potency was reached: varying AA
T1 sequence (P09917 1-674): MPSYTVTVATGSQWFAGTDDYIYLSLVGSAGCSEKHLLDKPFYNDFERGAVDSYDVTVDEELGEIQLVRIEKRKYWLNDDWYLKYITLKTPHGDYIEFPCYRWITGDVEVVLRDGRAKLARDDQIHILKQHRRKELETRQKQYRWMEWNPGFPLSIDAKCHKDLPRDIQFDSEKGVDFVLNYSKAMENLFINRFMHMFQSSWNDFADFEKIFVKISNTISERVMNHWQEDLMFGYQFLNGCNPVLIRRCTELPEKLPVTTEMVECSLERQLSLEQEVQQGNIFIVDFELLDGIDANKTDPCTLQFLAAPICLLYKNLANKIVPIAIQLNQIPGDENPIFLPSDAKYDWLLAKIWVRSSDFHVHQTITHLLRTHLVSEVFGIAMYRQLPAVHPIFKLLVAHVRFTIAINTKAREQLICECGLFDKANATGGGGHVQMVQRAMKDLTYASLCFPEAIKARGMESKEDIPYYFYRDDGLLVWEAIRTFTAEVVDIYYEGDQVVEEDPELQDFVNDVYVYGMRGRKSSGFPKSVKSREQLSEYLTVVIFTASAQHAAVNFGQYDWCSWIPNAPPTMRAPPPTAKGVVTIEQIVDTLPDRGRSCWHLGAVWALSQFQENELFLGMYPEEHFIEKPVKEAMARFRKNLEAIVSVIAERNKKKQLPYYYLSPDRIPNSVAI
Procedure: 5-LO was expressed in E. coli B121 (DE3) transformed with pT3- 5LO plasmid, and purification of 5-LO was performed as described previously. Briefly, E. coli was lysed in 50 mM tri-ethanolamine/HCl, pH 8.0, 5 mM EDTA, […] soybean trypsin inhibitor, 1 mM phenylmethanesulfonyl fluoride, 1 mM dithiothreitol and 1 mg/mL lysozyme and then sonified (3 × 15 s). The homogenate was then centrifuged at 40,000g for 20 min at 4°C. 5-LO in the supernatant was partially purified by affinity chromatography on an ATP-agarose column (Sigma-Aldrich). Semi-purified 5-LO was diluted in PBS containing EDTA (1 mM) and ATP (1 mM) and immediately used for 5-LO activity assays. Samples were pre-incubated with the test compounds or vehicle (0.1 % DMSO) for 10 min at 4°C. Samples were pre-warmed for 30 s at 37°C, and 2 mM CaCl2 plus the indicated concentrations of AA were added to start 5-LO product formation. The reaction was stopped after 10 min by addition of one volume of ice-cold methanol, and the formed metabolites were analyzed by HPLC. 5- LO products include the all-trans isomers of LTB4 as well as 5-HPETE and its corresponding alcohol 5-HETE.

[4] = biological target: T2, 5-LO/FLAP (Homo sapiens, UniProt P09917); test: Subcellular localization of 5-LO and FLAP by immunofluorescence microscopy in HEK293 cells; assay type: cell-based; conditions: HEK293 cells expressing 5-LO and FLAP, 3 μM (Fig. 4D) or 10 μM (method)
T2 construct: expressed in transfected cells; host or cells: HEK-293, stably transfected
T2 sequence (P09917 1-674): T1 sequence (P09917 1-674)
Procedure: Subcellular localization of 5-LO and FLAP was analyzed by immunofluorescence (IF) microscopy. In brief, HEK-293 cells expressing 5-LO/FLAP were seeded onto acid-washed (50 % sulfuric acid) and poly-L-lysine (0.01 %)-coated glass coverslips and cultured for 48 h at 37 °C until ∼60 % confluency. Cells were pre-incubated with 10 μM of compounds or vehicle (0.1 % DMSO) for 10 min before stimulation with 2.5 μM A23187 for 20 min at 37 °C. After fixation with 4 % paraformaldehyde solution, followed by permeabilization by using 50 mM ammonium chloride and acetone (3 min, 4 °C), cells were incubated with 10 % non-immune goat serum blocking solution for 1 h. Then, cells were incubated over night with mouse monoclonal anti-5-LO antibody (1:100) and rabbit polyclonal anti-FLAP antibody ([…]). The coverslips were intensively washed with PBS before staining with the fluorophore-labeled secondary antibodies Alexa Fluor 488 goat anti-rabbit (1:500) and Alexa Fluor 555 goat anti-mouse (1:500) for 20 min in the dark. The coverslips were mounted on glass slides with Mowiol containing 2.5 % n-propyl gallate and 4,6-diamidin-2-phenylindol (DAPI; Invitrogen, Carlsbad, CA), a staining for nuclear DNA. Samples were analyzed by a Zeiss Axio-vert 200 M microscope, and a Plan Neofluar _ 100/1.30 Oil (DIC III) objective (Carl Zeiss, Jena, Germany). […]

[5] = tested on: human PMNLs; test: Lactate dehydrogenase release (LDH assay) in PMNL; assay type: cell-based
Procedure: After treatment of PMNL, supernatants were centrifuged (600g × 5 min, 4 °C), and 100 μL of supernatant were mixed with 200 μL LDH reaction buffer (75 mM Tris/HCl, pH 7.4, 0.3 mM NADH, 1.5 mM Na-pyruvate) in a 96-well plate. The decrease of NADH was measured immediately by absorbance at 340 nm in a kinetic mode (every 7 s for 20 min; Multiskan Spectrum). As a positive control for maximal LDH release, cells treated with 1 % Triton X-100 were included in each experiment, while untreated cells and vehicle (DMSO) served as negative controls.

Structure (SMILES)	phosphorylation and expression of p38 MAPK (Western blot) ([1]; LPS stimulation)	fMLP-induced activation (phosphorylation) of p38 MAP kinase [1]	phosphorylation and expression of ERK (Western blot) ([2]; LPS stimulation)	fMLP-induced activation (phosphorylation) of ERK [2]	IC50 [3] [nM]	mechanism of 5-LO inhibition versus substrate AA [3]	AA concentration at which maximal inhibitory potency was reached [3] [nM]	A23187-induced 5-LO translocation / colocalization with FLAP [4]	cytotoxicity on PMNL (LDH levels in the supernatants) [5]
CCCC/C=C\CCCCCCCCCc1cccc(O)c1O [CI, (Z)-3-(pentadec-10′-enyl)-catechol]	significantly inhibited	inhibited	significantly inhibited	inhibited	60 ± 40	excluding a substrate competitive mechanism	20000	able to block	comparable to those of untreated controls
CCCCCCCCCCCCCCCc1cccc(O)c1O [CS, 3-n-pentadecylcatechol]	–	did not show significant effects	–	did not show significant effects	150	not competitive	2500	not successful	comparable to those of untreated controls
